Source: US11472838B2, “Inhibitors of blood coagulation factor XIII” (Zedira GmbH, priority 2018, dated 2022)
Like-named read-outs stand apart in the source and are kept apart here. *1 amine or outer side, *2 acyl side, *3 side chain or, on linkers, in order; H or OH if unused. Where a SMILES comes first, the peptide text is derived from it. [ ]: non-standard residue; d: D form. The star is where a group is joined. ξ: configuration not given here. Benzoyl(3-COOH,5-NO2) = O=C(O)c1cc(C(=O)*)cc([N+](=O)[O-])c1; Pro(3R,4S-CMe2) = CC1(C)[C@@H]2[C@@H](C(=O)O)NC[C@@H]21; Benzoyl(2-COOH-4,5-Cl2) = O=C(O)c1cc(Cl)c(Cl)cc1C(=O)*; Pro(3S,4R-(CH2)3) = O=C(O)[C@H]1NC[C@@H]2CCC[C@@H]21; Nle(5E-ene,6-CO2Et) = CCOC(=O)/C=C/CC[C@H](N)C(=O)O; X1 = COC(=O)/C=C/CC[C@H](N[*:1])C(=O)[*:2]; Pro(4-methylene) = C=C1CN[C@H](C(=O)O)C1; Morpholine(3S-CO) = O=C(O)[C@@H]1COCCN1; X3 = O=C(c1cnc(O)c([N+](=O)[O-])c1)*; Pro(4-oxo) = O=C1CN[C@H](C(=O)O)C1; Ala(cPr) = N[C@@H](CC1CC1)C(=O)O; Ile(3ξ) = CCC(C)[C@H](N)C(=O)O; Thr(3ξ) = CC(O)[C@H](N)C(=O)O; Chg = N[C@H](C(=O)O)C1CCCCC1; Tle = CC(C)(C)[C@H](N)C(=O)O; X4 = O=C(O)c1cncc(C(=O)*)c1; αMeP = C[C@@]1(C(=O)O)CCCN1; X6 = Cc1cccc(C)c1OCC(C)N*; Nle = CCCC[C@H](N)C(=O)O; NHIsopentyl = CC(C)CCN*; ξV = CC(C)C(N)C(=O)O; Alloc = C=CCOC(=O)*

Key:
TG2 = TG2 (Homo sapiens (Human), UniProt P21980); assay: Inhibitory activity against TG2 (isopeptidase assay), Tables 3 and 4; type: biochemical; settings: for Selectivity: TG2 versus FXIII
TG2, sequence (P21980 whole entry): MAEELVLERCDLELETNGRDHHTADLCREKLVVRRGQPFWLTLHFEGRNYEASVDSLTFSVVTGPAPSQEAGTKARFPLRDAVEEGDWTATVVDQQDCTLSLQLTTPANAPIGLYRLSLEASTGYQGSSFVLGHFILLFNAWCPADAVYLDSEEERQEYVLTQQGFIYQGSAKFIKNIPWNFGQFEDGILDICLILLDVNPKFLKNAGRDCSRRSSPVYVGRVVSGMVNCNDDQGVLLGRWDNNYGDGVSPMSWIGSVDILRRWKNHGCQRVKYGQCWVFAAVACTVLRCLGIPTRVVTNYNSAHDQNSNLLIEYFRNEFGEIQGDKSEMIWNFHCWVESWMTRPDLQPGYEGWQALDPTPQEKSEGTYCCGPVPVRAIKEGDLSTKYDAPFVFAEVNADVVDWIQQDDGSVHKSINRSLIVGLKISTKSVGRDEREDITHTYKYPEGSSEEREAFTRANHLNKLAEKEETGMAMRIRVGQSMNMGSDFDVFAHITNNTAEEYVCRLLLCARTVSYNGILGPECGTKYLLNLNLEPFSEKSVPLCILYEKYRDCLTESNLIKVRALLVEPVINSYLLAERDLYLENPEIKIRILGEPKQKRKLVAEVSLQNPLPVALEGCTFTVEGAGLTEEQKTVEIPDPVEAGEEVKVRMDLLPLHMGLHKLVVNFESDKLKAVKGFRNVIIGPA
Experimental: (§1) FXIIIa activity has been determined using substrate A101 (Zedira GmbH, Darmstadt, Germany), which is based on the N-terminal dodecapeptide of α2-antipiasmin.
(§2) The mixture was incubated for 20 min at room temperature to activate FXIII. […] For measurements without inhibitor, 15 μL of assay buffer/2% (v/v) DMSO were added. All measurements were performed in triplicate. The respective IC50 values were calculated by non-linear regression using the MARS software package (BMG Labtech).

FXIII = FXIII (Homo sapiens (Human), UniProt P00488); assay: Inhibitory activity against FXIII (isopeptidase assay), Tables 3 and 4; type: biochemical;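 further: FXIIIa activity read with a peptide substrate derived from the α2-antiplasmin N-terminal dodecapeptide, FXIII activated beforehand at room temperature, inhibitor-free wells with DMSO buffer as control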
FXIII, sequence (P00488 39-732): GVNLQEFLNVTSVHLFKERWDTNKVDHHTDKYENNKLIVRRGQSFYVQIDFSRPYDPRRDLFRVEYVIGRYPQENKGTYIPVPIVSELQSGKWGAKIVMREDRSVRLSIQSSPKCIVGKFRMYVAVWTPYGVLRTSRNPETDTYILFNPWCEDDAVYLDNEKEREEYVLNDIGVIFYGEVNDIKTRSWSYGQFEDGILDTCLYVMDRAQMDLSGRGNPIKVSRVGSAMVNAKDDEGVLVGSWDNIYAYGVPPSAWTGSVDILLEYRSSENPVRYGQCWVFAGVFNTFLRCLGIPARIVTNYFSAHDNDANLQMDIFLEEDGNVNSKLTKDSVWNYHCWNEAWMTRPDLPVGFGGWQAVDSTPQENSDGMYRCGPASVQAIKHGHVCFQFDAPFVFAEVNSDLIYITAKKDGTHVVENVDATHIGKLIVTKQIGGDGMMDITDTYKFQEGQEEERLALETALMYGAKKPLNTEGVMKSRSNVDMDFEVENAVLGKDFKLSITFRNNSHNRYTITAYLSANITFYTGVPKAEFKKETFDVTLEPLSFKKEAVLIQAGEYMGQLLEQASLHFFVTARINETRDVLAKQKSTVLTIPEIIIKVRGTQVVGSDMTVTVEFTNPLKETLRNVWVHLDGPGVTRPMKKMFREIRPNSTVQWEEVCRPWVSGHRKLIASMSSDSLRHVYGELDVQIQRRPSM
Experimental: as §1, §2

in vitro = settings: for half-life: plasma
Experimental: Further, the stability of compounds in plasma was determined as prerequisite for drug-likeness. Briefly, after spiking the chemical entities, the plasma was incubated at 37° C. At certain time points (e.g. at 15 and 120 minutes), 3 vol. cold MeOH were added to extract the compounds. After centrifugation, the supernatant was analyzed by HPLC. The half life was calculated based on the respective calibration curve.

whole human blood = assay: Thromboelastometry (ROTEM) in whole human blood with t-PA; type: cell-based
Experimental: Clotting time (CT), clot formation time (CFT), maximum clot firmness (MCF) and lysis index at 60 min (LI60) were obtained using fresh whole blood in the ROTEM® delta device according to the manufacturer's instructions.

[1] = isopeptidase assay, Table 3, read-out: IC50 [nM] TG2
[2] = isopeptidase assay, Table 3, read-out: IC50 [nM] FXIII

SMILES	Selectivity (TG2; isopeptidase assay, Table 3)	IC50 (TG2; [1]) [nM]	IC50 (FXIII; [2]) [nM]	recovery at 2 h (in vitro) [%]	Selectivity (TG2; Table 4)	IC50 (TG2; Table 4, read-out: TG2 IC50) [nM]	IC50 (FXIII; Table 4, read-out: FXIII IC50) [nM]	increase in clot lysis at 60 minutes compared to control (LI60c) (whole human blood) [%]	half-life (in vitro) [min]
COC(=O)/C=C/CC[C@H](NC(=O)c1cnc(O)c([N+](=O)[O-])c1)C(=O)N[C@H](C(=O)N1CC(=O)C[C@H]1C(=O)N[C@H](C(=O)N[C@H](C(N)=O)C1CCCCC1)C1CCCCC1)C(C)(C)C [Compound 6] (X3-[X1][Tle][Pro(4-oxo)][Chg][Chg]-NH2)	0.7	12	17	> 75					
COC(=O)/C=C/CC[C@H](NC(=O)c1cncc(C(=O)O)c1)C(=O)N[C@H](C(=O)N1CCC[C@H]1C(=O)N[C@H](C(=O)N[C@H](C(N)=O)C1CCCCC1)C1CCCCC1)C(C)(C)C [Compound 27] (X4-[X1][Tle]P[Chg][Chg]-NH2)	2.4	64	27	> 75					
COC(=O)/C=C/CC[C@H](NC(=O)c1cnc(O)c([N+](=O)[O-])c1)C(=O)N[C@H](C(=O)N1C[C@@H]2CCC[C@@H]2[C@H]1C(=O)N[C@H](C(=O)N[C@H](C(N)=O)C1CCCCC1)C1CCCCC1)C(C)(C)C [Compound 28] (X3-[X1][Tle][Pro(3S,4R-(CH2)3)][Chg][Chg]-NH2)	1.1	41	36	> 75					
COC(=O)/C=C/CC[C@H](NC(=O)c1cc(Cl)c(Cl)cc1C(=O)O)C(=O)N[C@H](C(=O)N1C[C@H]2[C@@H]([C@H]1C(=O)N[C@H](C(=O)N[C@H](C(N)=O)C1CCCCC1)C1CCCCC1)C2(C)C)C(C)(C)C [Compound 29] ({Benzoyl(2-COOH-4,5-Cl2)}-[X1][Tle][Pro(3R,4S-CMe2)][Chg][Chg]-NH2)	1.3	32	24	> 75					
COC(=O)/C=C/CC[C@H](NC(=O)c1cc(C(=O)O)cc([N+](=O)[O-])c1)C(=O)N[C@H](C(=O)N1CC(=O)C[C@H]1C(=O)N[C@@H](CC(C)C)C(=O)N1CCC[C@@]1(C)C(=O)NC(C)COc1c(C)cccc1C)C(C)(C)C (some centres unmarked) [Compound 30] ({Benzoyl(3-COOH,5-NO2)}-[X1][Tle][Pro(4-oxo)]L[αMeP]-X6)	1.1		15	> 75					
CCOC(=O)/C=C/CC[C@H](NC(=O)c1cc(Cl)c(Cl)cc1C(=O)O)C(=O)N[C@H](C(=O)N1CCC[C@H]1C(=O)N[C@@H](CC(C)C)C(=O)N[C@H](C(N)=O)C1CCCCC1)C(C)C [Compound 38] ({Benzoyl(2-COOH-4,5-Cl2)}-[Nle(5E-ene,6-CO2Et)]VPL[Chg]-NH2)				> 75	16.17	760	47		
CCOC(=O)/C=C/CC[C@H](NC(=O)c1cc(C(=O)O)cc([N+](=O)[O-])c1)C(=O)N[C@H](C(=O)N1CC(=O)C[C@H]1C(=O)N[C@H](C(=O)NCCC(C)C)C1CCCCC1)C(C)(C)C [Compound 40] ({Benzoyl(3-COOH,5-NO2)}-[Nle(5E-ene,6-CO2Et)][Tle][Pro(4-oxo)][Chg]-NHIsopentyl)				> 75	10.47	848	81		
C=C1C[C@@H](C(=O)N[C@@H](CC(C)C)C(=O)N2CCC[C@H]2C(=O)O)N(C(=O)[C@@H](NC(=O)[C@H](CC/C=C/C(=O)OC)NC(=O)c2cc(C(=O)O)cc([N+](=O)[O-])c2)C(C)(C)C)C1 [Compound 43] ({Benzoyl(3-COOH,5-NO2)}-[X1][Tle][Pro(4-methylene)]LP-OH)				> 75	5.42	856	158	14	
COC(=O)/C=C/CC[C@H](NC(=O)[C@@H]1CC(=O)CN1)C(=O)N[C@@H](CC1CC1)C(=O)N1CCOC[C@H]1C(=O)N[C@@H](CC(C)C)C(=O)N1CCC[C@H]1C(=O)O [Compound 44] (H-[Pro(4-oxo)][X1][Ala(cPr)][Morpholine(3S-CO)]LP-OH)				> 75	5.66	798	141	11	
CCCC[C@H](NC(=O)[C@H](CC/C=C/C(=O)OC)NC(=O)[C@@H](CC(=O)O)NC(C)=O)C(=O)N[C@@H](CCCC)C(=O)N[C@@H](CC(C)C)C(=O)N1CCC[C@H]1C(=O)N[C@@H](Cc1c[nH]c2ccccc12)C(=O)O [Ref. 13, reference compound] (Ac-[dD][X1][Nle][Nle]LPW-OH)					6.02	2800	465		< 15
CCCC[C@H](NC(=O)[C@H](CC/C=C/C(=O)OC)NC(=O)[C@@H](CC(=O)O)NC(C)=O)C(=O)N[C@@H](CCCC)C(=O)N[C@@H](CC(C)C)C(=O)N1CCC[C@H]1C(=O)O [Ref. 14, reference compound] (Ac-[dD][X1][Nle][Nle]LP-OH)						2150	> 10		< 15
CCCC[C@H](NC(=O)[C@H](CC/C=C/C(=O)OC)NC(=O)[C@@H]1CC(=O)CN1)C(=O)N[C@H](C(=O)N[C@@H](CC(C)C)C(=O)N1CCC[C@H]1C(=O)N[C@@H](Cc1c[nH]c2ccccc12)C(=O)O)C(C)CC (some centres unmarked) [Ref. 15, reference compound] (H-[Pro(4-oxo)][X1][Nle][Ile(3ξ)]LPW-OH)					0.52	117	226		< 15
CCCC[C@H](NC(=O)[C@H](CC/C=C/C(=O)OC)NC(=O)[C@@H]1CC(=O)CN1)C(=O)N[C@H](C(=O)N[C@@H](CC(C)C)C(=O)N1CCC[C@H]1C(=O)O)C(C)CC (some centres unmarked) [Ref. 16, reference compound] (H-[Pro(4-oxo)][X1][Nle][Ile(3ξ)]LP-OH)						196	> 10		< 15
COC(=O)/C=C/CC[C@H](NC(=O)[C@H](CC(N)=O)NC(C)=O)C(=O)N[C@@H](CCC(=O)O)C(=O)N[C@@H](CCC(N)=O)C(=O)N[C@H](C(=O)N[C@@H](CO)C(=O)N1CCC[C@H]1C(=O)N[C@@H](CC(C)C)C(=O)N[C@H](C(=O)N[C@@H](CC(C)C)C(=O)N[C@@H](CC(C)C)C(=O)N[C@@H](CCCCN)C(=O)O)C(C)O)C(C)C (some centres unmarked) [Ref. 17, reference compound] (Ac-N[X1]EQVSPL[Thr(3ξ)]LLK-OH)					0.54	227	420		< 15
COC(=O)/C=C/CC[C@H](NC(=O)[C@H](CC(N)=O)NC(C)=O)C(=O)N[C@@H](CCC(=O)O)C(=O)N[C@@H](CCC(N)=O)C(=O)N[C@H](C(=O)N[C@@H](CO)C(=O)N1CCC[C@H]1C(=O)N[C@@H](CC(C)C)C(=O)N[C@H](C(=O)N[C@@H](CC(C)C)C(=O)N[C@@H](CC(C)C)C(=O)O)C(C)O)C(C)C (some centres unmarked) [Ref. 18, reference compound] (Ac-N[X1]EQVSPL[Thr(3ξ)]LL-OH)					0.34	341	995		< 15
CCCC[C@H](NC(=O)[C@H](CC/C=C/C(=O)OC)NC(=O)[C@@H](CC(=O)O)NC(C)=O)C(=O)N[C@@H](CCCC)C(=O)N[C@@H](CC(C)C)C(=O)N1CCC[C@H]1C(=O)N[C@@H](Cc1c[nH]c2ccccc12)C(=O)N1CCC[C@H]1C(=O)O [Ref. 22, reference compound] (Ac-[dD][X1][Nle][Nle]LPWP-OH)					26.54	2920	110		< 15
CCCC[C@H](NC(=O)[C@H](CC/C=C/C(=O)OC)NC(=O)[C@@H]1CC(=O)CN1)C(=O)N[C@H](C(=O)N[C@@H](CC(C)C)C(=O)N1CCC[C@H]1C(=O)N[C@@H](Cc1c[nH]c2ccccc12)C(=O)N1CCC[C@H]1C(=O)O)C(C)CC (some centres unmarked) [Ref. 23, reference compound] (H-[Pro(4-oxo)][X1][Nle][Ile(3ξ)]LPWP-OH)					1.82	102	56		< 15
C=CCOC(=O)NCCCC[C@H](NC(=O)[C@H](CC(C)C)NC(=O)[C@H](CC(C)C)NC(=O)[C@@H](NC(=O)[C@H](CC(C)C)NC(=O)[C@@H]1CCCN1C(=O)[C@H](CO)NC(=O)C(NC(=O)[C@H](CCC(N)=O)NC(=O)[C@H](CCC(=O)O)NC(=O)[C@H](CC/C=C/C(=O)OC)NC(=O)[C@H](CC(N)=O)NC(C)=O)C(C)C)C(C)O)C(=O)O (some centres unmarked) [Ref. 24, reference compound] (Ac-N[X1]EQ[ξV]SPL[Thr(3ξ)]LLK(Alloc)-OH)					0.55	169	306		< 15
